Laboratory results reported in ChEMBL document CHEMBL5661943, “ASAP - In vitro antiviral effect” (2024).
Several values for one entry are separate records, joined by “and”; a condition that tells them apart may be missing. Equal entries are not always repeated.

Assays:
Zika virus [1] = assay: Functional CPE-based assay to measure dose dependent changes in antiviral-drug inhibitory efficacy against Zika virus MR766 in Vero E6 miRFP670 cells. Cells are treated with antiviral candidates that are serially diluted. EC50 is reported via analysis of MTS assay as a readout of CPE. The assay has been performed by KU Leuven.; format: organism-based, Chlorocebus sabaeus, Vero C1008; conditions: Zika virus; for EC50: Vero C1008; for EC90: Vero C1008, Baseline response 0 %, Maximum response 100 %
Zika virus [2] = assay: EC50 is reported via analysis of immunofluorescence staining. The assay has been performed by Icahn School of Medicine at Mount Sinai.; format: functional, organism-based, Chlorocebus sabaeus, VeroE6/TMPRSS2; conditions: for EC90: P-gp concentration 2 uM, P-gp inhibitor Elacidar
dengue virus type 2 [3] = assay: Functional assay to measure dose dependent changes in antiviral-drug inhibitory efficacy against Dengue virus type 2 New Guinea C in Vero E6 miRFP670 cells (cotreated with P-gp inhibitor, CP100356). Cells are treated with antiviral candidates that are serially diluted, following infection, cells are fixed. EC50 is reported via analysis of fluorescence intensity using high-content imager. The …; format: organism-based, Chlorocebus sabaeus, Vero C1008; conditions: Dengue virus; for EC90: P-gp concentration 500 nM, P-gp inhibitor CP100356
dengue virus type 2 [4] = assay: (§1) Functional immunofluorescence assay to measure dose dependent changes in antiviral-drug inhibitory efficacy against Dengue virus type 2 Thailand/16681/84 in Vero E6/TMPRSS2 cells (cotreated with P-gp inhibitor, Elacridar). Cells are treated with antiviral candidates that are serially diluted, following infection, cells are fixed. EC50 is reported via analysis of immunofluorescence staining. The assay has been performed by Icahn School of Medicine at Mount Sinai.; format: organism-based, Chlorocebus sabaeus, VeroE6/TMPRSS2; conditions: Dengue virus; for EC90: P-gp concentration 2 uM, P-gp inhibitor Elacidar
dengue virus type 2 [5] = assay: as §1, with “cells.” for “cells (cotreated with P-gp inhibitor, Elacridar).”; format: organism-based, Chlorocebus sabaeus; conditions: for EC50: VeroE6/TMPRSS2
Zika virus [6] = assay: as §1, with “Zika” for “Dengue”, “PRVABC59” for “type 2 Thailand/16681/84”, “cells.” for “cells (cotreated with P-gp inhibitor, Elacridar).”; format: organism-based, Chlorocebus sabaeus; conditions: for EC50: VeroE6/TMPRSS2

What does the source list for CC(C)Cc1nc2c(C(=O)Nc3ccc4c(c3)CNC4)cc(Br)cc2[nH]1?
EC50 (Zika virus [1]): > 50 µM; EC90 (Zika virus [1]; Hill slope 1.82, Maximum measured 17.962 %, Minimum measured -5.537 %, R squared 0.817): > 50 µM; EC50 (Zika virus [2]; Zika virus, VeroE6/TMPRSS2): > 5.56 µM; EC90 (Zika virus [2]; Zika virus, VeroE6/TMPRSS2, Baseline response 0 %, Hill slope -10.435, Maximum measured 137.671 %, Maximum response 100 %, Minimum measured 68.671 %, R squared 0.096): > 5.56 µM; EC50 (dengue virus type 2 [3]; Vero C1008): > 0.781 µM; EC90 (dengue virus type 2 [3]; Vero C1008, Maximum measured 122.11 %, Minimum measured 121.973 %): > 0.781 µM; EC50 (dengue virus type 2 [4]; VeroE6/TMPRSS2): > 5.56 µM; EC90 (dengue virus type 2 [4]; VeroE6/TMPRSS2, Maximum measured 192.149 %, Minimum measured 144.973 %): > 5.56 µM

How did the EC50 (Zika virus [1]) turn out when O=C(Nc1ccc2c(c1)CNC2)c1cc(Cl)cc(-n2cccc2)c1 was run?
Its EC50 is greater than 50 µM.

What about the EC90 (Zika virus [1]; Hill slope 0.167, Maximum measured 17.974 %, Minimum measured 0.845 %, R squared 0.067) of the same compound?
The EC90 was greater than 50 µM.

And the EC50 (Zika virus [2]; Zika virus, VeroE6/TMPRSS2)?
Its EC50 is greater than 5.56 µM.

And the EC90 (Zika virus [2]; Zika virus, VeroE6/TMPRSS2, Maximum measured 131.342 %, Minimum measured 97.756 %)?
The EC90 was greater than 5.56 µM.

And the EC90 (Zika virus [2]; Zika virus, VeroE6/TMPRSS2, Baseline response 0 %, Hill slope -0.378, Maximum measured 125.075 %, Maximum response 100 %, Minimum measured 52.976 %, R squared 0.223)?
The EC90 was greater than 5.56 µM.

What about the EC50 (dengue virus type 2 [3]; Vero C1008) of the same compound?
Its EC50 is 18.1 µM.

And the EC90 (dengue virus type 2 [3]; Vero C1008, Baseline response 0 %, Hill slope -1.567, Maximum measured 91.76 %, Maximum response 100 %, Minimum measured 2.031 %, R squared 0.898)?
Its EC90 is greater than 50 µM.

What about the EC50 (dengue virus type 2 [4]; VeroE6/TMPRSS2) of the same compound?
Its EC50 is 15.1 µM.

And the EC90 (dengue virus type 2 [4]; VeroE6/TMPRSS2, Baseline response 0 %, Hill slope -12.71, Maximum measured 168.092 %, Maximum response 100 %, Minimum measured 22.727 %, R squared 0.109)?
The EC90 was greater than 16.7 µM.

What does the source list for O=C(Nc1ccc2c(c1)CNC2)c1cc(Br)cc2[nH]c(-c3ccccc3)nc12?
EC50 (Zika virus [1]): < 0.391 µM; EC90 (Zika virus [1]; Hill slope -0.169, Maximum measured 22.843 %, Minimum measured -3.22 %, R squared 0.045): < 0.391 µM; EC50 (Zika virus [2]; Zika virus, VeroE6/TMPRSS2): > 5.56 µM; EC90 (Zika virus [2]; Zika virus, VeroE6/TMPRSS2, Maximum measured 77.487 %, Minimum measured 34.255 %): > 5.56 µM; EC50 (dengue virus type 2 [3]; Vero C1008): > 50 µM; EC90 (dengue virus type 2 [3]; Vero C1008, Baseline response 0 %, Hill slope -0.881, Maximum measured 119.709 %, Maximum response 100 %, Minimum measured 77.354 %, R squared 0.142): > 50 µM; EC50 (dengue virus type 2 [4]; VeroE6/TMPRSS2): > 50 µM; EC90 (dengue virus type 2 [4]; VeroE6/TMPRSS2, Maximum measured 303.364 %, Minimum measured 144.726 %): > 50 µM

With NCCCc1cccc(NC(=O)c2cc(Cl)cc(NC(=O)OCc3ccccc3)c2)n1 as the compound, how does the EC50 (dengue virus type 2 [5]) read?
Its EC50 is less than 0.023 µM.

And the EC90 (dengue virus type 2 [5]; VeroE6/TMPRSS2, Baseline response 0 %, EC90 CI (lower) 0 uM, EC90 CI (upper) 0.069 uM, Hill slope -0.47, Maximum measured 66.667 %, Maximum response 100 %, Minimum measured 7.762 %, R squared 0.244)?
Its EC90 is 2.12 µM.

What about the EC50 (Zika virus [6]) of the same compound?
Its EC50 is greater than 50 µM.

What about the EC90 (Zika virus [6]; VeroE6/TMPRSS2, Maximum measured 444.624 %, Minimum measured 59.048 %) of the same compound?
Its EC90 is greater than 50 µM.

What about the EC50 (Zika virus [2]; Zika virus, VeroE6/TMPRSS2) of the same compound?
Its EC50 is 0.762 µM.

What about the EC90 (Zika virus [2]; Zika virus, VeroE6/TMPRSS2, Baseline response 0 %, Hill slope -0.324, Maximum measured 72.025 %, Maximum response 100 %, Minimum measured 4.462 %, R squared 0.463) of the same compound?
Its EC90 is greater than 16.7 µM.

And the EC50 (dengue virus type 2 [4]; VeroE6/TMPRSS2)?
Its EC50 is greater than 5.56 µM.

What about the EC90 (dengue virus type 2 [4]; VeroE6/TMPRSS2, Baseline response 0 %, Hill slope -0.245, Maximum measured 101.026 %, Maximum response 100 %, Minimum measured 51.347 %, R squared 0.141) of the same compound?
The EC90 was greater than 5.56 µM.

How did the EC50 (dengue virus type 2 [5]) turn out when Cc1cc(CN)cc(NC(=O)c2cc(Cl)cc(NC(=O)OCc3ccccc3)c2)c1 was run?
The EC50 was greater than 5.56 µM.

And the EC90 (dengue virus type 2 [5]; VeroE6/TMPRSS2, Maximum measured 117.926 %, Minimum measured 57.292 %)?
The EC90 was greater than 5.56 µM.

And the EC50 (Zika virus [6])?
The EC50 was greater than 50 µM.

What about the EC90 (Zika virus [6]; VeroE6/TMPRSS2, Maximum measured 728.77 %, Minimum measured 52.412 %) of the same compound?
The EC90 was greater than 50 µM.

What about the EC90 (Zika virus [2]; Baseline response 0 %, Hill slope -0.823, Maximum measured 127.605 %, Maximum response 100 %, Minimum measured 3.711 %, R squared 0.613) of the same compound?
The EC90 was greater than 5.56 µM.

What about the EC90 (Zika virus [2]; Zika virus, VeroE6/TMPRSS2, Baseline response 0 %, Hill slope -1.09, Maximum measured 145.706 %, Maximum response 100 %, Minimum measured 48.4 %, R squared 0.191) of the same compound?
Its EC90 is greater than 3.33 µM.

And the EC50 (Zika virus [2]; veroe6/tmprss2)?
Its EC50 is 3.14 µM and 0.66 µM.

And the EC50 (dengue virus type 2 [4]; VeroE6/TMPRSS2)?
Its EC50 is greater than 1.85 µM.

And the EC90 (dengue virus type 2 [4]; VeroE6/TMPRSS2, Maximum measured 126.603 %, Minimum measured 82.463 %)?
Its EC90 is greater than 1.85 µM.
